# Literature values in US8025907B2, “Cosmetic composition to accelerate repair of functional wrinkles” (priority 2005, dated 2011).
# Columns and labels:
# [1] = tested on: forehead expression lines; conditions: 28 days
Substance,reduction of forehead expression lines [1],"wrinkle depth reduction by the hexapeptide component (wrinkles; after thirty days, after factoring the influence of the cosmetic base ingredient)",time before a visible reduction in wrinkles can occur (wrinkles; on average)
Dipeptide Diaminobutyroyl Benzalamide Diacetate,up to 52%,,
acetyl hexapeptide-3,,less than 30%,up to 30 days
